Laboratory results as given in patent publication US11667649B2, “Heteroaromatic macrocyclic ether chemotherapeutic agents” (Nuvalent, Inc., priority 2020, dated 2023).

Tested on: TPM3-NTRK1-wt IC50 / primary target (e.g. CD74-ROS1-wt) IC50, Ba/F3 cells
Assay: Cell assay TRKA selectivity (TRKA potency divided by primary target potency)
Type: cell-based
Details: for TPM3-NTRK1-wt/CD74-ROS1-G2032R: TRKA selectivity ratio: TPM3-NTRK1-wt IC50 / CD74-ROS1-G2032R IC50, Ba/F3 cells; for TPM3-NTRK1-wt/CD74-ROS1-wt: TRKA selectivity ratio: TPM3-NTRK1-wt IC50 / CD74-ROS1-wt IC50, Ba/F3 cells; for TPM3-NTRK1-wt/EML4-ALK-L1196M-G1202R: TRKA selectivity ratio: TPM3-NTRK1-wt IC50 / EML4-ALK-L1196M-G1202R IC50, Ba/F3 cells; for TPM3-NTRK1-wt/EML4-ALK-wt: TRKA selectivity ratio: TPM3-NTRK1-wt IC50 / EML4-ALK-wt IC50, Ba/F3 cells
Outline: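 IL-3-independent Ba/F3 lines stably expressing TPM3-TRKA or the primary fusion (e.g. CD74-ROS1 wt) were exposed to 3-fold compound dilutions for 72 h. Viability was read by CellTiter-Glo luminescence, with IC50 from four-parameter logistic fit. Selectivity is TPM3-NTRK1 IC50 divided by primary-target IC50, binned A (>30-fold) to D (<1).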

Row | Compound | TPM3-NTRK1-wt/CD74-ROS1-G2032R | TPM3-NTRK1-wt/CD74-ROS1-wt | TPM3-NTRK1-wt/EML4-ALK-L1196M-G1202R | TPM3-NTRK1-wt/EML4-ALK-wt
1 | Cc1nc2c(s1)Cc1c(c(C#N)nn1C)-c1cnc(N)c(c1)O[C@H](C)c1cc(F)ccc1-2 [Example 82, (19R)-22-amino-16-fluoro-5,10,19-trimethyl-20-oxa-9-thia-4,5,11,23-tetraazapentacyclo[19.3.1.0^2,^6.0^8,^12.0^13,^18]pentacosa-1(24),2(6),3,8(12),10,13,15,17,21(25),22-decaene-3-carbonitrile] | A (bin A for very high selectivity, ratio>30-fold) | A (bin A for very high selectivity, ratio>30-fold) | B (bin B for high selectivity, ratio>10-fold) | A (bin A for very high selectivity, ratio>30-fold)
2 | C[C@H]1Oc2cc(cnc2N)-c2c(C#N)ncn2Cc2cc(F)cnc2-c2ccc(F)cc21 [Example 63, (20R)-23-amino-10,17-difluoro-20-methyl-21-oxa-4,6,12,24-tetraazapentacyclo[20.3.1.0^2,^6.0^8,^13.0^14,^19]hexacosa-1(25),2,4,8,10,12,14(19),15,17,22(26),23-undecaene-3-carbonitrile] | A (bin A for very high selectivity, ratio>30-fold) | A (bin A for very high selectivity, ratio>30-fold) | B (bin B for high selectivity, ratio>10-fold) | A (bin A for very high selectivity, ratio>30-fold)
3 | CCn1ncc2c1-c1cnc(N)c(c1)OCc1cc(F)ccc1-c1ncccc1C2 [Example 8, 3-ethyl-17-fluoro-21-oxa-3,4,12,24-tetraazapentacyclo[20.3.1.0^2,^6.0^8,^13.0^14,^19]hexacosa-1(25),2(6),4,8(13),9,11,14,16,18,22(26),23-undecaen-23-amine] | A (bin A for very high selectivity, ratio>30-fold) | A (bin A for very high selectivity, ratio>30-fold) | B (bin B for high selectivity, ratio>10-fold) | A (bin A for very high selectivity, ratio>30-fold)
4 | C[C@H]1Oc2cc(cnc2N)-c2c(C#N)ncn2Cc2cn(C)nc2-c2ccc(F)cc21 [Example 13, (19R)-22-amino-16-fluoro-10,19-dimethyl-20-oxa-4,6,10,11,23-pentaazapentacyclo[19.3.1.0^2,^6.0^8,^12.0^13,^18]pentacosa-1(24),2,4,8,11,13,15,17,21(25),22-decaene-3-carbonitrile] | A (bin A for very high selectivity, ratio>30-fold) | A (bin A for very high selectivity, ratio>30-fold) | A (bin A for very high selectivity, ratio>30-fold) | A (bin A for very high selectivity, ratio>30-fold)
5 | Nc1ncc2cc1OCc1cc(F)ccc1-n1nc(Cl)cc1Cc1nnn(CC3CC3)c1-2 [Example 110, 10-chloro-3-(cyclopropylmethyl)-16-fluoro-20-oxa-3,4,5,11,12,23-hexaazapentacyclo[19.3.1.0^2,^6.0^8,^12.0^13,^18]pentacosa-1(24),2(6),4,8,10,13,15,17,21(25),22-decaen-22-amine] | A (bin A for very high selectivity, ratio>30-fold) | A (bin A for very high selectivity, ratio>30-fold) | A (bin A for very high selectivity, ratio>30-fold) | A (bin A for very high selectivity, ratio>30-fold)
6 | C[C@H]1Oc2cc(cnc2N)-c2c(nn(C)c2CC2CC2)Cc2cn(C)nc2-c2ccc(F)cc21 [Example 179, (19R)-3-(cyclopropylmethyl)-16-fluoro-4,10,19-trimethyl-20-oxa-4,5,10,11,23-pentaazapentacyclo[19.3.1.0^2,^6.0^8,^12.0^13,^18]pentacosa-1(24),2,5,8,11,13,15,17,21(25),22-decaen-22-amine] | A (bin A for very high selectivity, ratio>30-fold) | A (bin A for very high selectivity, ratio>30-fold) | A (bin A for very high selectivity, ratio>30-fold) | A (bin A for very high selectivity, ratio>30-fold)
7 | CCn1ncc2c1-c1cnc(N)c(c1)O[C@H](C)c1cc(F)ccc1-n1nc(Br)cc1C2 [Example 80, (19R)-10-bromo-3-ethyl-16-fluoro-19-methyl-20-oxa-3,4,11,12,23-pentaazapentacyclo[19.3.1.0^2,^6.0^8,^12.0^13,^18]pentacosa-1(24),2(6),4,8,10,13,15,17,21(25),22-decaen-22-amine] | A (bin A for very high selectivity, ratio>30-fold) | A (bin A for very high selectivity, ratio>30-fold) | B (bin B for high selectivity, ratio>10-fold) | A (bin A for very high selectivity, ratio>30-fold)
8 | C[C@H]1Oc2cc(cnc2N)-c2c(C#N)ncn2Cc2cnccc2-c2ccc(F)cc21 [Example 10, (20R)-23-amino-17-fluoro-20-methyl-21-oxa-4,6,10,24-tetraazapentacyclo[20.3.1.0^2,^6.0^8,^13.0^14,^19]hexacosa-1(25),2,4,8(13),9,11,14,16,18,22(26),23-undecaene-3-carbonitrile] | A (bin A for very high selectivity, ratio>30-fold) | D (bin D for low selectivity, ratio<1) | C (bin C for moderate selectivity, ratio≥1) | A (bin A for very high selectivity, ratio>30-fold)
9 | CC(C)n1nc2c(c1C#N)-c1cnc(N)c(c1)O[C@H](C)c1cc(F)ccc1-n1nccc1C2 [Example 118, (19R)-22-amino-16-fluoro-19-methyl-4-(propan-2-yl)-20-oxa-4,5,11,12,23-pentaazapentacyclo[19.3.1.0^2,^6.0^8,^12.0^13,^18]pentacosa-1(24),2,5,8,10,13,15,17,21(25),22-decaene-3-carbonitrile] | D (bin D for low selectivity, ratio<1) | A (bin A for very high selectivity, ratio>30-fold) | D (bin D for low selectivity, ratio<1) | A (bin A for very high selectivity, ratio>30-fold)
10 | CCn1ncc2c1-c1cnc(N)c(c1)O[C@H](C)c1cc(F)ccc1-n1nc(Cl)cc1C2 [Example 74, (19R)-10-chloro-3-ethyl-16-fluoro-19-methyl-20-oxa-3,4,11,12,23-pentaazapentacyclo[19.3.1.0^2,^6.0^8,^12.0^13,^18]pentacosa-1(24),2(6),4,8,10,13,15,17,21(25),22-decaen-22-amine] | A (bin A for very high selectivity, ratio>30-fold) | A (bin A for very high selectivity, ratio>30-fold) | B (bin B for high selectivity, ratio>10-fold) | A (bin A for very high selectivity, ratio>30-fold)
11 | CCc1nn(C)c2c1-c1cnc(N)c(c1)OCc1cc(F)ccc1-c1nn(C)cc1C2 [Example 176, 3-ethyl-16-fluoro-5,10-dimethyl-20-oxa-4,5,10,11,23-pentaazapentacyclo[19.3.1.0^2,^6.0^8,^12.0^13,^18]pentacosa-1(24),2(6),3,8,11,13,15,17,21(25),22-decaen-22-amine] | A (bin A for very high selectivity, ratio>30-fold) | A (bin A for very high selectivity, ratio>30-fold) | B (bin B for high selectivity, ratio>10-fold) | A (bin A for very high selectivity, ratio>30-fold)
